Values quoted from earlier work in US20110015080A1, “Solution-based methods for RNA expression profiling” (MASSACHUSETTS INSTITUTE OF TECHNOLOGY, priority 2005, published 2011).
“Also recorded” adds a separate entry of the source.

System: HL-60 acute myeloblastic leukemia cells
Details: treatment during a course of 5 days (Stegmaier et al., 2004); cited from earlier work

CC1=C(/C=C/C(C)=C/C=C/C(C)=C/C(=O)O)C(C)(C)CCC1 [tretinoin, all-trans-retinoic acid]
differentiation of HL-60 cells: potent inducer of neutrophilic differentiation; also recorded: differentiate with increasing neutrophil characteristics
